Results reported in patent US20240209011A1, “HETEROAROMATIC PHOSPHONIUM SALTS FOR TREATING CANCER” (FLORATEK PHARMA S.A., priority 2021, published 2024).

Key:
breast PDX = assay: Activity against breast PDX; type: cell-based; conditions: growth of breast PDX; summary of Table 6
Protocol: (§1) PDX-derived cell cultures were obtained from tumors explanted from mice and isolated by mechanical and enzymatic dissociation. […] Cells were harvested and seeded in 96-wells plates at a density of 1.25 to 5×10^3 cells/well for cytotoxicity assays. Cells were incubated 48 h at 37° C. prior to addition of test molecules and vehicle (DMSO, 0.1%) at desired final concentrations. Cell viability was assessed before drugs' addition (To) and 5 days after test molecules addition by measuring ATP cell content using CellTiter-Glo® Luminescent Cell Viability Assay (Promega) according to the manufacturer's instructions. Luciferase activity was measured on a luminometer (PerkinElmer® EnVision™). Each concentration of compounds was tested in triplicate.
(§2) Viability was calculated as a percentage of ATP value compared to vehicle treated controls.
(§3) For PDX primary cell cultures, the tumour tissue was washed with PBS containing antibiotic-antimycotic and non-tumour tissue and necrotic tumour tissues were separated. The tumour tissue was transferred to a new dish and cut into 1-2 mm^3 fragments, resuspended in RPMI-1640 medium and centrifuged at 1,200 rpm for 6 min at room temperature. The pelleted material was resuspended with 15 mL of Tumour Cell Digestion Solution and incubated at 37° C. for 1 hour with agitation. Following further addition of media, centrifugation and passage through a […] cell strainer, the homogenous cell mixture was layered onto 15 mL of Ficoll-Paque PLUS in a 50 mL conical tube and centrifuged for 15 min at 1,600 rpm. The interface cells were collected, washed with media, separated by centrifugation at 1,200 rpm. The cell pellet was resuspended in serum free media supplemented with growth factors. 10,000 cells/wells were plated in a 96 well plate and incubated at 37° C., 5% CO2, 95% air and 100% relative humidity overnight. The cytotoxicity assay was conducted as above. IC50 values represent absolute IC50.

kidney PDX = assay: Activity against kidney PDX; type: cell-based; conditions: kidney PDX growth; summary of Table 12
Protocol: as §1, §2, §3

lung carcinoma cell = assay: Activity against lung carcinoma cells; type: cell-based; conditions: lung carcinoma cell growth; text summary of Tables 14A-14C
Protocol: Antitumor activity of the compounds and doxorubicin as a positive control was assessed by using the CellTiter-Blue Cell Viability Assay (Promega, #G8082) or CellTiter-Glow® Luminescent Cell Viability assay (Promega #G7572) according to the manufacturer's instructions. The compounds were tested at 5 or 6 concentrations in half-log increments (highest concentration 30 μM or 100 μM) in duplicate or triplicate well conditions.
Tumor cells were grown at 37° C. in a humidified atmosphere with 5% CO2 in RPMI 1640 or DMEM medium, supplemented with 10% (v/v) fetal calf serum and 50 μg/ml gentamicin for up to 20 passages, and were passaged once or twice weekly. Cells were harvested using TrypLE or PBS buffer containing 1 mM EDTA, and the percentage of viable cells is determined using a CASY Model TI cell counter (OMNI Life Science). Cells were harvested from exponential phase cultures, counted and plated in 96 well flat-bottom microtiter plates at a cell density depending on the cell line's growth rate (4,000-20,000 cells/well depending on the cell line's growth rate, up to 60,000 for hematological cancer cell lines) in RPMI 1640 or DMEM medium supplemented with 10% (v/v) fetal calf serum and 50 μg/ml gentamicin (140 μl/well). Cultures were incubated at 37° C. and 5% CO2 in a humidified atmosphere. After 24 h, 10 μl of test compounds or control medium were added, and left on the cells for another 72 h. Compounds were serially diluted in DMSO, transferred in cell culture medium, and added to the assay plates. The DMSO concentration was kept constant at <0.3% v/v across the assay plate. Viability of cells was quantified by the CellTiter-Blue® cell viability assay (Promega G8081) or CellTiter-Glow® Luminescent Cell Viability assay (Promega #G7572). Fluorescence (FU) was measured by using the EnSpire® multimode plate reader (Perkin Elmer) (excitation X=570 nm, emission λ=600 nm). Luminescence was measured with a microplate luminometer (Promega or PerkinElmer).
Sigmoidal concentration-response curves were fitted to the data points (test-versus-control, T/C values) obtained for each tumor model using 4 parameter non-linear curve fit (Charles River DRS Datawarehouse Software) or with GraphPad prism 5.02 software. IC50 values are reported as absolute IC50 values, being the concentration of test compound at the intersection of the concentration-response curves with T/C=50% Cell lines tested are presented in Table 1.

skin melanoma PDX = assay: Activity against skin melanoma PDX; type: cell-based; conditions: skin melanoma PDX growth; text summary of Table 22
Protocol: as §1, §2, §3

ADCK3 = biological target: T1, ADCK3 (Homo sapiens, UniProt Q8NI60); assay: KINOMEscan competition binding assay, Kd; conditions: 11-point 3-fold dilution series
T1 construct: purchased Eurofins (KINOMEscan); host or cells: T7 phage in BL21-derived E. coli, or HEK-293
T1 sequence (Q8NI60 163-647): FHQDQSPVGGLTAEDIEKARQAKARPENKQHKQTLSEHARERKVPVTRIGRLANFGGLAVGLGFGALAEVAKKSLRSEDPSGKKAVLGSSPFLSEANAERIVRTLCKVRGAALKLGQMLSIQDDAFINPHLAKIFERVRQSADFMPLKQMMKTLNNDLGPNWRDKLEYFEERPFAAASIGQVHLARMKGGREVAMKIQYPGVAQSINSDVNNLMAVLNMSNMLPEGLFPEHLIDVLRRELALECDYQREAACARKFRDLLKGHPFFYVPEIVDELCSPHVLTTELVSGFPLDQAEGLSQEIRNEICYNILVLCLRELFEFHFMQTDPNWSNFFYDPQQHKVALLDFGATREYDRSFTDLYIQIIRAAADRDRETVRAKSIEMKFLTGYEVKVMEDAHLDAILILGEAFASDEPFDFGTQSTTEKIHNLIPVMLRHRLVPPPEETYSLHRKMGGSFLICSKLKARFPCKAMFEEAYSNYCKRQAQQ
Protocol: Selected compounds were screened for kinase inhibition using the KINOMEscan™ assay (Eurofins) which is based on a competition binding assay that quantitatively measures the ability of a compound to compete with an immobilized, active-site directed ligand. The assay was performed by combining three components: DNA-tagged kinase; immobilized ligand; and the test compound. The ability of the test compound to compete with the immobilized ligand was measured via quantitative PCR of the DNA tag.
Kinase-tagged T7 phage strains were prepared in an E. coli host derived from the BL21 strain. E. coli were grown to log-phase and infected with T7 phage and incubated with shaking at 32° C. until lysis. The lysates were centrifuged and filtered to remove cell debris. The remaining kinases were produced in HEK-293 cells and subsequently tagged with DNA for qPCR detection. Streptavidin-coated magnetic beads were treated with biotinylated small molecule ligands for 30 minutes at room temperature to generate affinity resins for kinase assays. The liganded beads were blocked with excess biotin and washed with blocking buffer (SeaBlock (Pierce), 1% BSA, 0.05% Tween 20, 1 mM DTT) to remove unbound ligand and to reduce non-specific binding. Binding reactions were assembled by combining kinases, liganded affinity beads, and test compounds in 1× binding buffer (20% SeaBlock, 0.17×PBS, 0.05% Tween 20, 6 mM DTT). Test compounds were prepared as 111× stocks in 100% DMSO. Kds were determined using an 11-point 3-fold compound dilution series with three DMSO control points. All compounds for Kd measurements are distributed by acoustic transfer (non-contact dispensing) in 100% DMSO. The compounds were then diluted directly into the assays such that the final concentration of DMSO was 0.9%. All reactions performed in polypropylene 384-well plate. Each was a final volume of 0.02 ml. The assay plates were incubated at room temperature with shaking for 1 hour and the affinity beads were washed with wash buffer (1×PBS, 0.05% Tween 20). The beads were then resuspended in elution buffer (1×PBS, 0.05% Tween 20, 0.5 μM nonbiotinylated affinity ligand) and incubated at room temperature with shaking for 30 minutes. The kinase concentration in the eluates was measured by qPCR.
Binding constants (Kds) were calculated with a standard dose-response curve using the Hill equation: Response=Background+[Signal−Background/i+(Kd^Hill Slope/Dose^Hill Slope)]. The Hill Slope was set to −1. Curves were fitted using a non-linear least square fit with the Levenberg-Marquardt algorithm.

| SMILES | IC50 (breast PDX) [µM] | IC50 (kidney PDX) [µM] | IC50 (lung carcinoma cell) [µM] | IC50 (skin melanoma PDX) [µM] | Kd (ADCK3) [µM] |
| --- | --- | --- | --- | --- | --- |
| O=c1cc(-c2ccc(CCCC[P+](c3ccccc3)(c3ccccc3)c3ccccc3)cc2)oc2c3c(ccc12)OCO3.[Br-] [SND123, 4-[4-(6-oxo-[1,3]dioxolo[4,5-h]chromen-8-yl)phenyl]butyl-triphenylphosphonium bromide] | < 20 | < 20 | < 20 | < 10 | 0.82 |
| CCNC(=O)Oc1ccc2c(=O)cc(-c3ccc(CCCC[P+](c4ccccc4)(c4ccccc4)c4ccccc4)cc3)oc2c1O.[Br-] [SND126A, 4-[4-[7-(Ethylcarbamoyloxy)-8-hydroxy-4-oxo-chromen-2-yl]phenyl]butyltriphenylphosphonium bromide] | < 20 | < 20 |  | < 10 |  |
| O=c1cc(-c2ccc(CCCC[P+](c3ccccc3)(c3ccccc3)c3ccccc3)cc2)oc2c(O)c(O)ccc12 [SND118, 4-[4-(7,8-dihydroxy-4-oxo-chromen-2-yl)phenyl]butyltriphenyl-phosphonium bromide] |  |  | < 20 |  | 1.5 |
| CC(C)NC(=O)Oc1ccc2c(=O)cc(-c3ccc(CCCC[P+](c4ccccc4)(c4ccccc4)c4ccccc4)cc3)oc2c1O [SND127, 4-[4-[7-(Isopropylcarbamoyloxy)-8-hydroxy-4-oxo-chromen-2-yl]phenyl]butyltriphenylphosphonium bromide] |  |  | < 20 |  |  |
| COc1c(O)ccc2c(=O)cc(-c3ccc(CCCC[P+](c4ccccc4)(c4ccccc4)c4ccccc4)cc3)oc12.[Br-] [SND140, (4-(4-(7-hydroxy-8-methoxy-4-oxo-4H-chromen-2-yl)phenyl)butyl)triphenylphosphonium bromide] | < 20 | < 20 | < 20 | < 10 | 0.62 |
| CCNC(=O)Oc1ccc2c(=O)cc(-c3ccc(CCCC[P+](c4ccccc4)(c4ccccc4)c4ccccc4)cc3)oc2c1OC(=O)NCC.[Br-] [SND124, 4-[4-[7,8-Bis(ethylcarbamoyloxy)-4-oxo-chromen-2-yl]phenyl]-butyltriphenylphosphonium bromide] | < 20 | < 20 | < 20 | < 10 |  |
